According to PubChem BioAssay (NCI):
Several values for one entry are separate records, joined by “and”; a condition that tells them apart may be missing. Equal entries are not always repeated.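 The compound was tested at five concentrations on cells cultured in 96-well plates, with a 48-hour exposure period. Here, GI50 denotes the concentration required for 50% inhibition of growth. TGI: concentration producing complete growth inhibition.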

Columns and labels:
Assay in all cases: DTP human tumour cell line panel, 48 h
CAKI-1 renal = test system: CAKI-1 renal
HCC-2998 colon = test system: HCC-2998 colon
IGROV1 ovarian = test system: IGROV1 ovarian
A549 NSCLC = test system: A549 NSCLC
OVCAR-8 ovarian = test system: OVCAR-8 ovarian
RXF 393 renal = test system: RXF 393 renal
SK-MEL-2 melanoma = test system: SK-MEL-2 melanoma
BT-549 breast = test system: BT-549 breast
SF-539 CNS = test system: SF-539 CNS
M14 melanoma = test system: M14 melanoma

Row | SMILES | GI50 (CAKI-1 renal) | TGI (CAKI-1 renal) | GI50 (HCC-2998 colon) | TGI (HCC-2998 colon) | GI50 (IGROV1 ovarian) | TGI (IGROV1 ovarian) | GI50 (A549 NSCLC) | TGI (A549 NSCLC) | GI50 (OVCAR-8 ovarian) | TGI (OVCAR-8 ovarian) | GI50 (RXF 393 renal) | TGI (RXF 393 renal) | GI50 (SK-MEL-2 melanoma) | TGI (SK-MEL-2 melanoma) | GI50 (BT-549 breast) | TGI (BT-549 breast) | GI50 (SF-539 CNS) | TGI (SF-539 CNS) | GI50 (M14 melanoma) | TGI (M14 melanoma)
1 | C#C[C@]1(O)CC[C@H]2[C@@H]3CC=C4c5nc(N)sc5CC[C@]4(C)[C@H]3CC[C@@]21C | 3.08 µM | 14.8 µM | 4.21 µM | 19.2 µM | 4.83 µM | 25.9 µM | 4.15 µM | 24.8 µM | 9.12 µM | 56.1 µM | 1.81 µM | 3.72 µM | 2.72 µM | 7.57 µM | 1.97 µM | 6.26 µM | 1.58 µM | 3.56 µM | 2.75 µM | 7.83 µM
2 | N#[N+]c1ccc(Nc2ccccc2)cc1 | 1.11 µg/mL | 19.3 µg/mL | > 50 µg/mL | > 50 µg/mL | > 50 µg/mL | > 50 µg/mL | > 50 µg/mL | > 50 µg/mL | > 50 µg/mL | > 50 µg/mL | > 50 µg/mL | > 50 µg/mL | > 50 µg/mL | > 50 µg/mL | > 50 µg/mL | > 50 µg/mL | > 50 µg/mL | > 50 µg/mL | > 50 µg/mL | > 50 µg/mL
3 | COc1cc2ncnc(Oc3cccc(NC(=O)Nc4cc(C(C)(C)C(F)(F)F)on4)c3)c2cc1OC | 1.06 µM and 1.44 µM | > 43 µM | 2.29 µM and 3.28 µM | 14.9 µM and > 10 µM | 0.565 µM and 0.634 µM | 4.61 µM and 3.69 µM | 1.9 µM and 2.74 µM | 40.8 µM and > 10 µM | 2.54 µM and 3.09 µM | 21.5 µM and > 10 µM | 2.16 µM and 2.68 µM | 8.14 µM and > 10 µM | 0.443 µM and 0.565 µM | 2.26 µM and 3.06 µM | 2.4 µM and 3.89 µM | 8.78 µM and > 10 µM | 2.75 µM and 3.14 µM | 12.9 µM and > 10 µM | 0.105 µM and 0.18 µM | 1.47 µM and 1.91 µM
4 | C[C@@H]1CCc2ncc(F)cc2[C@H]2CCCN2c2ccn3ncc(c3n2)C(=O)N1 | 23 µM | > 100 µM | > 100 µM | > 100 µM | 34.6 µM | > 100 µM | 69.3 µM | > 100 µM | > 100 µM | > 100 µM | 16.7 µM | 61 µM | > 100 µM | > 100 µM | 69.8 µM | > 100 µM | 54.6 µM | > 100 µM | > 100 µM | > 100 µM
5 | OCC(O)C(O)C(O)C(O)c1nnc2c(-c3ccccc3)nc3ccccc3n12 (centres undefined) | > 100 µM | > 100 µM | 62.4 µM | > 100 µM | 14.5 µM | > 100 µM | > 100 µM | > 100 µM | 53.5 µM | > 100 µM | 56.8 µM | > 100 µM | > 100 µM | > 100 µM | 56.4 µM | > 100 µM | > 100 µM | > 100 µM | > 100 µM | > 100 µM
6 | CCOC(=O)c1c(NC(=O)c2ccc(Cl)cc2)sc2c(CN(C)C)c(O)ccc12 | 5.57 µM | 32.5 µM | 1.83 µM | 3.84 µM | 8.88 µM | 31.7 µM | 8.07 µM | 36.2 µM | 3.55 µM | 19.2 µM | 2.98 µM | 13.4 µM | 6.51 µM | 41.1 µM | 13.4 µM | > 100 µM | 5.2 µM | 18.4 µM | 2.24 µM | 5.87 µM
7 | CC(O)[C@H](NC(=O)N[C@@H](CC(N)=O)c1nc(N2CCNCC2)no1)C(=O)O (some centres undefined) | > 100 µM | > 100 µM | > 100 µM | > 100 µM | > 100 µM | > 100 µM | > 100 µM | > 100 µM | > 100 µM | > 100 µM | > 100 µM | > 100 µM | > 100 µM | > 100 µM | > 100 µM | > 100 µM | > 100 µM | > 100 µM | > 100 µM | > 100 µM
8 | COc1ccc(-c2c(N)noc2-c2cc(OC)c3c(c2)OCCO3)cc1 | < 0.01 µM | 34.1 µM | 0.0173 µM | 0.902 µM | 0.0177 µM | > 73.3 µM | 0.0101 µM | > 41.6 µM | 0.0212 µM | > 33.2 µM | < 0.01 µM | 0.0467 µM | < 0.01 µM | 67.5 µM | 0.0285 µM | 1.35 µM | 0.0121 µM | 1.28 µM | < 0.01 µM | 0.048 µM
9 | C=CC(=O)Nc1cc2c(Nc3ccc(F)c(Cl)c3)ncnc2cc1C#CC(C)(C)N1CCN(C)CC1 | 0.973 µM | 4.05 µM | 1.83 µM | 4.25 µM | 0.175 µM | 1.4 µM | 2.64 µM | – | 1.85 µM | 5.35 µM | 0.837 µM | 2.15 µM | 2.98 µM | 5.54 µM | 1.6 µM | 3.47 µM | 1.48 µM | 2.99 µM | 2.56 µM | 5.71 µM
10 | O=[N+]([O-])/C=C/c1ccc(Cl)cc1[N+](=O)[O-] | 2.16 µM | 9.09 µM | 1.85 µM | 3.41 µM | 2.01 µM | 5.85 µM | 6.72 µM | 30.3 µM | 3.88 µM | 13.6 µM | 2.36 µM | 4.02 µM | 12.3 µM | 39.7 µM | 3.47 µM | 10.2 µM | 2.65 µM | 5.91 µM | 4.42 µM | 16.5 µM
11 | Cc1ccc(OC(=O)N2C/C(=C\c3ccccc3)C(=O)/C(=C/c3ccccc3)C2)cc1 | – | > 100 µM | – | > 37 µM | – | > 95.5 µM | – | > 100 µM | – | 54.5 µM | – | 37.5 µM | – | > 100 µM | – | 88 µM | – | 66.2 µM | – | 21.6 µM
12 | CC(=O)Oc1cc2cnc3c4cc(OC(C)=O)c(OC(C)=O)cc4ccc3c2cc1OC(C)=O | 0.611 µM | > 100 µM | 3.74 µM | > 100 µM | 1.01 µM | 14 µM | 3.69 µM | > 100 µM | 1.97 µM | 31.2 µM | 1.79 µM | 8.88 µM | 4.5 µM | 79.9 µM | 1.35 µM | 8.4 µM | 1.3 µM | 4.46 µM | 1.78 µM | > 100 µM
13 | COc1ccc(C2=Nn3c(nnc3-n3nc(C)cc3C)SC2)cc1 | 0.0443 µM | > 43.4 µM | 0.254 µM | > 100 µM | 0.107 µM | > 100 µM | 0.0765 µM | > 100 µM | 0.0691 µM | > 100 µM | 0.0599 µM | > 100 µM | 0.0599 µM | > 100 µM | 0.192 µM | > 100 µM | 0.023 µM | 0.0594 µM | 0.0626 µM | > 100 µM
14 | O=C1Nc2ccc3c(c2/C1=C\c1cc2c(cc1Br)OCO2)OCO3 | 0.331 µM | 2.8 µM | 1.65 µM | > 100 µM | 0.199 µM | 1.7 µM | 0.731 µM | 2.49 µM | 0.855 µM | 4.87 µM | 0.901 µM | 3.78 µM | 3.4 µM | > 100 µM | 0.71 µM | 39.5 µM | 0.311 µM | 1.12 µM | 0.341 µM | 5.76 µM
